Laboratory results: PubChem BioAssay AID1918949 (Molecular Pharmacology Branch, DTP, NCI, 2023)
“And” between values parts separate entries of the source, which are not always exact repeats. Identical values can stand only once.

System: K24384-001-R-PDC complex spheroid viability
Assay: Anticancer human tumor K24384-001-R-PDC patient-derived pancreatic adenocarcinoma cell line growth inhibition
Details: for viability, T/C: stronger effect = lower value
Method in brief: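 Drug combinations with the LSD1 inhibitor iadademstat tested on tumor cells co-cultured as spheroids with endothelial cells and mesenchymal stem cells. Concentrations descended in half-log increments from clinical Cmax or 10 microM.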

[1] = curve of first compound, second compound 0.1 µM
[2] = curve of first compound, second compound 0.316 µM
[3] = curve of first compound, second compound 1 µM
[4] = curve of first compound, second compound 3.16 µM
[5] = curve of first compound, second compound 10 µM
[6] = second compound 0.1 µM, first compound 0.00316 µM
[7] = second compound 0.1 µM, first compound 0.01 µM
[8] = second compound 0.1 µM, first compound 0.0316 µM
[9] = second compound 0.1 µM, first compound 0.1 µM
[10] = second compound 0.1 µM, first compound 0.316 µM
[11] = second compound 0.1 µM, first compound 1 µM
[12] = second compound 0.316 µM, first compound 0.00316 µM
[13] = second compound 0.316 µM, first compound 0.01 µM
[14] = second compound 0.316 µM, first compound 0.0316 µM
[15] = second compound 0.316 µM, first compound 0.1 µM
[16] = second compound 0.316 µM, first compound 0.316 µM
[17] = second compound 0.316 µM, first compound 1 µM
[18] = second compound 1 µM, first compound 0.00316 µM
[19] = second compound 1 µM, first compound 0.01 µM
[20] = second compound 1 µM, first compound 0.0316 µM
[21] = second compound 1 µM, first compound 0.1 µM
[22] = second compound 1 µM, first compound 0.316 µM
[23] = second compound 1 µM, first compound 1 µM
[24] = second compound 3.16 µM, first compound 0.00316 µM
[25] = second compound 3.16 µM, first compound 0.01 µM
[26] = second compound 3.16 µM, first compound 0.0316 µM
[27] = second compound 3.16 µM, first compound 0.1 µM
[28] = second compound 3.16 µM, first compound 0.316 µM
[29] = second compound 3.16 µM, first compound 1 µM
[30] = second compound 10 µM, first compound 0.00316 µM
[31] = second compound 10 µM, first compound 0.01 µM
[32] = second compound 10 µM, first compound 0.0316 µM
[33] = second compound 10 µM, first compound 0.1 µM
[34] = second compound 10 µM, first compound 0.316 µM
[35] = second compound 10 µM, first compound 1 µM
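Also: spheroids exposed to agents for seven days before luminescence viability reading.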
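For viability, T/C in this document: 100% = DMSO vehicle control viability.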

Compound: NS(=O)(=O)OCC1CC(n2ccc3c(NC4CCc5ccccc54)ncnc32)CC1O (configuration not stated) + NC1CCC(NC2CC2c2ccccc2)CC1
- IC50 [1]: 0.506 µM
- IC50 [2]: 0.517 µM
- IC50 [3]: 0.412 µM
- IC50 [4]: 0.445 µM
- IC50 [5]: 0.441 µM
- viability, T/C (second compound 0.1 µM, first compound 0.00949 µM): 98.6%
- viability, T/C (second compound 0.1 µM, first compound 0.03 µM): 138%
- viability, T/C (second compound 0.1 µM, first compound 0.0949 µM): 125%
- viability, T/C (second compound 0.1 µM, first compound 0.3 µM): 64.8%
- viability, T/C (second compound 0.1 µM, first compound 0.949 µM): 38.5%
- viability, T/C (second compound 0.1 µM, first compound 3 µM): 26.1%
- viability, T/C (second compound 0.316 µM, first compound 0.00949 µM): 87.6%
- viability, T/C (second compound 0.316 µM, first compound 0.03 µM): 142%
- viability, T/C (second compound 0.316 µM, first compound 0.0949 µM): 144%
- viability, T/C (second compound 0.316 µM, first compound 0.3 µM): 67.9%
- viability, T/C (second compound 0.316 µM, first compound 0.949 µM): 34.1%
- viability, T/C (second compound 0.316 µM, first compound 3 µM): 26.1%
- viability, T/C (second compound 1 µM, first compound 0.00949 µM): 109%
- viability, T/C (second compound 1 µM, first compound 0.03 µM): 138%
- viability, T/C (second compound 1 µM, first compound 0.0949 µM): 124%
- viability, T/C (second compound 1 µM, first compound 0.3 µM): 56.6%
- viability, T/C (second compound 1 µM, first compound 0.949 µM): 37.8%
- viability, T/C (second compound 1 µM, first compound 3 µM): 27.2%
- viability, T/C (second compound 3.16 µM, first compound 0.00949 µM): 93.2%
- viability, T/C (second compound 3.16 µM, first compound 0.03 µM): 138%
- viability, T/C (second compound 3.16 µM, first compound 0.0949 µM): 118%
- viability, T/C (second compound 3.16 µM, first compound 0.3 µM): 59.7%
- viability, T/C (second compound 3.16 µM, first compound 0.949 µM): 37.1%
- viability, T/C (second compound 3.16 µM, first compound 3 µM): 25.9%
- viability, T/C (second compound 10 µM, first compound 0.00949 µM): 91.2%
- viability, T/C (second compound 10 µM, first compound 0.03 µM): 116%
- viability, T/C (second compound 10 µM, first compound 0.0949 µM): 95.7%
- viability, T/C (second compound 10 µM, first compound 0.3 µM): 58.4%
- viability, T/C (second compound 10 µM, first compound 0.949 µM): 31.9%
- viability, T/C (second compound 10 µM, first compound 3 µM): 13.2%

Compound: CC1COCCN1c1cc(C2(S(C)(=N)=O)CC2)nc(-c2ccnc3[nH]ccc23)n1 (configuration not stated)
- viability, T/C (compound 0.0316 µM): 103% and 94.9%
- viability, T/C (compound 0.1 µM): 97.9% and 102%
- viability, T/C (compound 0.316 µM): 107% and 81.7%
- viability, T/C (compound 1 µM): 75.8% and 67.1%
- viability, T/C (compound 3.16 µM): 45.8% and 42.4%
- viability, T/C (compound 10 µM): 48.6% and 44.5%
- IC50 (curve of compound): 2.83 µM and 2.53 µM

Compound: O=C(C=Cn1cnc(-c2cc(C(F)(F)F)cc(C(F)(F)F)c2)n1)NNc1cnccn1 + NC1CC1c1ccc(-c2cccc(O)c2)cc1
- IC50 [1]: 0.0277 µM
- IC50 [2]: 0.0237 µM
- IC50 [3]: 0.0224 µM
- IC50 [4]: 0.0212 µM
- IC50 [5]: 0.0278 µM
- viability, T/C [6]: 68.8%
- viability, T/C [7]: 72.3%
- viability, T/C [8]: 46.5%
- viability, T/C [9]: 28.7%
- viability, T/C [10]: 24.7%
- viability, T/C [11]: 20.6%
- viability, T/C [12]: 68.2%
- viability, T/C [13]: 72.8%
- viability, T/C [14]: 42.7%
- viability, T/C [15]: 30.2%
- viability, T/C [16]: 21.6%
- viability, T/C [17]: 20.3%
- viability, T/C [18]: 67.1%
- viability, T/C [19]: 77%
- viability, T/C [20]: 40.6%
- viability, T/C [21]: 27.3%
- viability, T/C [22]: 22.7%
- viability, T/C [23]: 19%
- viability, T/C [24]: 80.9%
- viability, T/C [25]: 65.4%
- viability, T/C [26]: 42%
- viability, T/C [27]: 26%
- viability, T/C [28]: 21.7%
- viability, T/C [29]: 19.5%
- viability, T/C [30]: 80.6%
- viability, T/C [31]: 81.9%
- viability, T/C [32]: 46%
- viability, T/C [33]: 30.7%
- viability, T/C [34]: 26.7%
- viability, T/C [35]: 24.5%

Compound: O=C(C=Cn1cnc(-c2cc(C(F)(F)F)cc(C(F)(F)F)c2)n1)NNc1cnccn1 + NC1CCC(NC2CC2c2ccccc2)CC1
- IC50 [1]: 0.0298 µM
- IC50 [2]: 0.0473 µM
- IC50 [3]: 0.0314 µM
- IC50 [4]: 0.0351 µM
- IC50 [5]: 0.0289 µM
- viability, T/C [6]: 72.7%
- viability, T/C [7]: 62.3%
- viability, T/C [8]: 49.8%
- viability, T/C [9]: 36.2%
- viability, T/C [10]: 30.7%
- viability, T/C [11]: 23.9%
- viability, T/C [12]: 75%
- viability, T/C [13]: 69.8%
- viability, T/C [14]: 57.9%
- viability, T/C [15]: 34.6%
- viability, T/C [16]: 34%
- viability, T/C [17]: 21%
- viability, T/C [18]: 67%
- viability, T/C [19]: 65.1%
- viability, T/C [20]: 49.8%
- viability, T/C [21]: 31.3%
- viability, T/C [22]: 30.3%
- viability, T/C [23]: 24.3%
- viability, T/C [24]: 64.9%
- viability, T/C [25]: 61.2%
- viability, T/C [26]: 53%
- viability, T/C [27]: 31.8%
- viability, T/C [28]: 30.3%
- viability, T/C [29]: 20.5%
- viability, T/C [30]: 72.7%
- viability, T/C [31]: 70.5%
- viability, T/C [32]: 47.2%
- viability, T/C [33]: 31.5%
- viability, T/C [34]: 30.8%
- viability, T/C [35]: 21.6%
